This experiment concerns HT-29 cells. The experiment in a line: HT-29 necroptosis cell viability assay (TNF-α/SMAC mimetic/zVAD-FMK, CellTiter-Glo). In kind it is cell-based. The note with it: Homo sapiens, read-out: Activity. The procedure, abridged:
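HT-29 cells (~5,000/well, overnight) in FBS-free McCoy's 5A with TNF-α 10 ng/ml, SMAC mimetic 6 μM and zVAD-FMK 10 μM plus 10-point 1:3 compound titration, 20 h at 37°C. ATP measured by CellTiter-Glo luminescence; IC50 as geometric mean of duplicates.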
Background: In ATP-based viability assays light output follows the ATP content of the culture.

The mark [1] stands for this setting: HT-29, HT-29 necroptosis cell viability, IC50 class symbols.
The mark [2] stands for this setting: HT-29 cells stimulated with TNF-α (10 ng/ml), SMAC mimetic (6 μM) and zVAD-FMK (10 μM), 20 hours, CellTiter-Glo ATP luminescence, geometric mean IC50 from 10 points.
Where [3] appears, read: HT-29, HT-29 necroptosis cell viability assay, class symbols for IC50.

Like-named read-outs stand apart in the source and are kept apart here. A value given as a limit tells only on which side of the number the result lay.

In the case of `CC1(C#N)CCN(c2nccc(Oc3ccc(-n4ncn(Cc5c(F)cccc5F)c4=O)cc3)c2F)C1` (centres unmarked) [Example 356, 1-(4-(4-(4-(2,6-difluorobenzyl)-5-oxo-4,5-dihydro-1H-1,2,4-triazol-1-yl)phenoxy)-3-fluoropyridin-2-yl)-3-methylpyrrolidine-3-carbonitrile], the IC50 under setting [1] was less than 100 nM.

As to `COC(=O)c1nc(C)c(Oc2ccc(-n3ncn(Cc4cc(Cl)ccn4)c3=O)cc2F)s1` [Example 10, methyl 5-(4-(4-((4-chloropyridin-2-yl)methyl)-5-oxo-4,5-dihydro-1H-1,2,4-triazol-1-yl)-2-fluorophenoxy)-4-methylthiazole-2-carboxylate], under setting [2], the IC50 is 1000 to 10000 nM.

As to `CC(C)(C)OC1CN(c2nccc(Oc3ccc(-n4ncn(Cc5c(F)cccc5F)c4=O)cc3)c2F)C1` [Example 303, 2-(4-((2-(3-(tert-butoxy)azetidin-1-yl)-3-fluoropyridin-4-yl)oxy)phenyl)-4-(2,6-difluorobenzyl)-2,4-dihydro-3H-1,2,4-triazol-3-one], the IC50 under setting [1] was less than 100 nM.

For `O=c1n(Cc2c(F)cccc2F)cnn1-c1ccc(Oc2ccnc(NC34CC(C3)C4)c2)cc1` [Example 306, 2-[4-[[2-(1-bicyclo[1.1.1]pentanylamino)-4-pyridyl]oxy]phenyl]-4-[(2,6-difluorophenyl)methyl]-1,2,4-triazol-3-one], under setting [1], the IC50 was 100 to 1000 nM.

Consider `Cc1nc(N2CCN(C)CC2)sc1Oc1ccc(-n2ncn(Cc3c(F)cccc3F)c2=O)cc1F` [Example 296, 4-(2,6-difluorobenzyl)-2-(3-fluoro-4-((4-methyl-2-(4-methylpiperazin-1-yl)thiazol-5-yl)oxy)phenyl)-2,4-dihydro-3H-1,2,4-triazol-3-one], for which the IC50 under setting [1] is less than 100 nM.

Regarding `Cc1nc(C2(O)CCC2)sc1Oc1ccc(-n2ncn(Cc3c(F)cccc3F)c2=O)cc1F` [Example 586, 4-(2,6-difluorobenzyl)-2-(3-fluoro-4-((2-(1-hydroxycyclobutyl)-4-methylthiazol-5-yl)oxy)phenyl)-2,4-dihydro-3H-1,2,4-triazol-3-one], under setting [3], the IC50 is less than 100 nM.

Regarding `CC1(N)CN(c2cc(Oc3ccc(-n4ncn(Cc5c(F)cccc5F)c4=O)cc3F)c(F)cn2)C1` [Example 424, 2-(4-((2-(3-amino-3-methylazetidin-1-yl)-5-fluoropyridin-4-yl)oxy)-3-fluorophenyl)-4-(2,6-difluorobenzyl)-2,4-dihydro-3H-1,2,4-triazol-3-one], the IC50 under setting [1] was 100 to 1000 nM.

Consider `O=c1n(Cc2c(F)cccc2F)cnn1C1CCC(Oc2ccccc2)C1` (centres unmarked) [Example 161, 4-(2,6-difluorobenzyl)-2-(3-phenoxycyclopentyl)-2,4-dihydro-3H-1,2,4-triazol-3-one], for which the IC50 under setting [3] lay within 1000 to 10000 nM.

For the compound `Cc1nc(C(C)(C)O)cn1Cc1ccc(-n2nc3n(c2=O)C(c2ccccc2)CC3)cc1F` (centres unmarked) [Example 136, 2-(3-fluoro-4-((4-(2-hydroxypropan-2-yl)-2-methyl-1H-imidazol-1-yl)methyl)phenyl)-5-phenyl-2,5,6,7-tetrahydro-3H-pyrrolo[2,1-c][1,2,4]triazol-3-one], the IC50 under setting [3] was 1000 to 10000 nM.

`Cc1cc(Oc2ccc(-n3ncn(Cc4c(F)cccc4F)c3=O)cc2F)n(C)n1` [Example 172, 4-(2,6-difluorobenzyl)-2-(4-((1,3-dimethyl-1H-pyrazol-5-yl)oxy)-3-fluorophenyl)-2,4-dihydro-3H-1,2,4-triazol-3-one]: the IC50 under setting [3] is less than 100 nM.

For `Cc1cc(N2CC(C)(N)C2)nn1Cc1ccc(-n2ncn(Cc3c(F)cccc3F)c2=O)cc1` [Example 537, 2-(4-((3-(3-amino-3-methylazetidin-1-yl)-5-methyl-1H-pyrazol-1-yl)methyl)phenyl)-4-(2,6-difluorobenzyl)-2,4-dihydro-3H-1,2,4-triazol-3-one], the IC50 under setting [3] was 1000 to 10000 nM.

Consider `Cc1nc(C(C)(C)O)sc1Oc1ccc(-n2ncn(Cc3c(F)cccc3F)c2=O)cc1` [Example 473, 4-(2,6-difluorobenzyl)-2-(4-((2-(2-hydroxypropan-2-yl)-4-methylthiazol-5-yl)oxy)phenyl)-2,4-dihydro-3H-1,2,4-triazol-3-one], for which, under setting [1], the IC50 was less than 100 nM.

Consider `COC1(C)CN(c2nccc(Oc3ccc(-n4ncn(Cc5c(F)cccc5F)c4=O)cc3Cl)c2F)C1` [Example 497, 2-(3-chloro-4-((3-fluoro-2-(3-methoxy-3-methylazetidin-1-yl)pyridin-4-yl)oxy)phenyl)-4-(2,6-difluorobenzyl)-2,4-dihydro-3H-1,2,4-triazol-3-one], for which the IC50 under setting [3] was less than 100 nM.

Consider `Cc1nn(Cc2ccc(-n3ncn(Cc4c(F)cccc4F)c3=O)cc2)cc1C#N` [Example 190, 1-(4-(4-(2,6-difluorobenzyl)-5-oxo-4,5-dihydro-1H-1,2,4-triazol-1-yl)benzyl)-3-methyl-1H-pyrazole-4-carbonitrile], for which, under setting [3], the IC50 is less than 100 nM.

On to `Cc1nc(N2CC(C#N)C2)sc1Oc1ccc(-n2ncn(Cc3c(F)cccc3F)c2=O)cc1` [Example 53, 1-(5-(4-(4-(2,6-difluorobenzyl)-5-oxo-4,5-dihydro-1H-1,2,4-triazol-1-yl)phenoxy)-4-methylthiazol-2-yl)azetidine-3-carbonitrile], for which, under setting [2], the IC50 was less than 100 nM.

As to `COC(=O)c1nc(C)c(Oc2ccc(-n3ncn(Cc4cc(F)ccc4F)c3=O)cc2F)s1` [Example 108, methyl 5-(4-(4-(2,5-difluorobenzyl)-5-oxo-4,5-dihydro-1H-1,2,4-triazol-1-yl)-2-fluorophenoxy)-4-methylthiazole-2-carboxylate], the IC50 under setting [2] is less than 100 nM.

With `O=c1n(Cc2c(F)cccc2F)cnn1-c1ccc(Oc2ccnc(N3CC4(COC4)C3)c2)cc1` [Example 527, 2-(4-((2-(2-oxa-6-azaspiro[3.3]heptan-6-yl)pyridin-4-yl)oxy)pheny)-4-(2,6-difluorobenzyl)-2,4-dihydro-3H-1,2,4-triazol-3-one], the IC50 under setting [3] is 100 to 1000 nM.

Regarding `COc1cc(S(=O)(=O)c2ccc(-n3nc4n(c3=O)C(c3ccccc3)CC4)cc2)ccn1` (centres unmarked) [Example 617, 2-(4-((2-methoxypyridin-4-yl)sulfonyl)phenyl)-5-phenyl-2,5,6,7-tetrahydro-3H-pyrrolo[2,1-c][1,2,4]triazol-3-one], under setting [3], the IC50 was less than 100 nM.

Consider `N#Cc1cc(Oc2ccc(-n3ncn(Cc4c(F)cccc4F)c3=O)cc2)ncn1` [Example 630, 6-(4-(4-(2,6-difluorobenzyl)-5-oxo-4,5-dihydro-1H-1,2,4-triazol-1-yl)phenoxy)pyrimidine-4-carbonitrile], for which, under setting [3], the IC50 lay in the range of 1000 to 10000 nM.

In the case of `CCOC(=O)c1cc(C)n(Cc2ccc(-n3ncn(Cc4c(F)cccc4F)c3=O)cc2F)c1` [Example 204, ethyl 1-(4-(4-(2,6-difluorobenzyl)-5-oxo-4,5-dihydro-1H-1,2,4-triazol-1-yl)-2-fluorobenzyl)-5-methyl-1H-pyrrole-3-carboxylate], the IC50 under setting [3] was less than 100 nM.

Turning to `O=c1n(Cc2c(F)cccc2F)cnn1-c1ccc(Oc2ccnc(NC3CCC3)c2)cc1` [Example 344, 2-(4-((2-(cyclobutylamino)pyridin-4-yl)oxy)phenyl)-4-(2,6-difluorobenzyl)-2,4-dihydro-3H-1,2,4-triazol-3-one], under setting [1], the IC50 was in the range of 100 to 1000 nM.

For `CN(c1cc(Oc2ccc(-n3ncn(Cc4c(F)cccc4F)c3=O)cc2)ccn1)C1CC1` [Example 485, 2-(4-((2-(cyclopropyl(methyl)amino)pyridin-4-yl)oxy)phenyl)-4-(2,6-difluorobenzyl)-2,4-dihydro-3H-1,2,4-triazol-3-one], under setting [3], the IC50 fell in the range of 100 to 1000 nM.

Turning to `Cc1c(N2CC(C)(NC(=O)OC(C)(C)C)C2)ncn1Cc1ccc(-n2ncn(Cc3c(F)cccc3F)c2=O)cc1` [Example 538, tert-butyl (1-(1-(4-(4-(2,6-difluorobenzyl)-5-oxo-4,5-dihydro-1H-1,2,4-triazol-1-yl)benzyl)-5-methyl-1H-imidazol-4-yl)-3-methylazetidin-3-yl)carbamate], under setting [3], the IC50 was less than 100 nM.

On to `Cc1nc(C2(F)CC(O)C2)sc1Oc1ccc(-n2ncn(Cc3c(F)cccc3F)c2=O)cc1F` (centres unmarked) [Example 110, 4-(2,6-difluorobenzyl)-2-(3-fluoro-4-((2-(1-fluoro-3-hydroxycyclobutyl)-4-methylthiazol-5-yl)oxy)phenyl)-2,4-dihydro-3H-1,2,4-triazol-3-one], for which, under setting [2], the IC50 was less than 100 nM.

As for `N#CC1CCCN(c2cc(Oc3ccc(-n4ncn(Cc5c(F)cccc5F)c4=O)cc3)ccn2)C1` (centres unmarked) [Example 277, 1-(4-(4-(4-(2,6-difluorobenzyl)-5-oxo-4,5-dihydro-1H-1,2,4-triazol-1-yl)phenoxy)pyridin-2-yl)piperidine-3-carbonitrile], the IC50 under setting [1] was in the range of 100 to 1000 nM.

Turning to `CC1(Nc2cc(Oc3ccc(-n4ncn(Cc5c(F)cccc5F)c4=O)cc3)ccn2)CC1` [Example 532, 4-(2,6-difluorobenzyl)-2-(4-((2-((1-methylcyclopropyl)amino)pyridin-4-yl)oxy)phenyl)-2,4-dihydro-3H-1,2,4-triazol-3-one], the IC50 under setting [3] is less than 100 nM.

On to `Cc1nc(C#N)sc1Oc1ccc(-n2ncn(Cc3c(F)cccc3F)c2=O)cc1F` [Example 569, 5-(4-(4-(2,6-difluorobenzyl)-5-oxo-4,5-dihydro-1H-1,2,4-triazol-1-yl)-2-fluorophenoxy)-4-methylthiazole-2-carbonitrile], for which the IC50 under setting [3] was less than 100 nM.

As to `Cc1nc(C(=O)N2CCOCC2)sc1Oc1ccc(-n2nc3n(c2=O)[C@H](c2ccccc2)CC3)cc1F` (single isomer, unassigned) [Example 601], under setting [3], the IC50 is less than 100 nM.

On to `C[C@H]1C[C@@H](NC(=O)OC(C)(C)C)CN1c1cc(Oc2ccc(-n3ncn(Cc4c(F)cccc4F)c3=O)cc2F)ccn1` [Example 368, tert-butyl ((3R,5S)-1-(4-(4-(4-(2,6-difluorobenzyl)-5-oxo-4,5-dihydro-1H-1,2,4-triazol-1-yl)-2-fluorophenoxy)pyridin-2-yl)-5-methylpyrrolidin-3-yl)carbamate], for which, under setting [1], the IC50 fell in the range of 100 to 1000 nM.

These data come from patent US20250179061A1 (SIRONAX LTD., priority 2022, published 2025).
